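1) Cells in 96-well plates. 2) Compound, 48 h, 5 concentrations. 3) Linear interpolation between surrounding doses. 4) Unreached endpoint = highest concentration. GI50: concentration for 50% inhibition of growth.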 Active and inactive are the calls of the source. Rule as the data show it: active = GI50 up to about 1.1 µM and inactive = higher.
Assays:
Assay in all cases: NCI anticancer screen, dose series, 48 h
CAKI-1 = test system: CAKI-1
HCT-15 = test system: HCT-15
HL-60 = test system: HL-60
HOP-62 = test system: HOP-62
HOP-92 = test system: HOP-92
IGROV-1 = test system: IGROV-1
M14 = test system: M14
Malme-3M = test system: Malme-3M
NCI-H23 = test system: NCI-H23
NCI/ADR-RES = test system: NCI/ADR-RES
RXF 393 = test system: RXF 393
SF-295 = test system: SF-295
SK-MEL-28 = test system: SK-MEL-28
SK-MEL-2 = test system: SK-MEL-2
SK-OV-3 = test system: SK-OV-3
SR = test system: SR
SW-620 = test system: SW-620
T47D = test system: T47D
ACHN = test system: ACHN
K562 = test system: K562

| SMILES | GI50 (CAKI-1) | GI50 (HCT-15) [µM] | GI50 (HL-60) | GI50 (HOP-62) | GI50 (HOP-92) | GI50 (IGROV-1) | GI50 (M14) | GI50 (Malme-3M) | GI50 (NCI-H23) | GI50 (NCI/ADR-RES) | GI50 (RXF 393) | GI50 (SF-295) | GI50 (SK-MEL-28) | GI50 (SK-MEL-2) | GI50 (SK-OV-3) | GI50 (SR) | GI50 (SW-620) | GI50 (T47D) | GI50 (ACHN) | GI50 (K562) |
| --- | --- | --- | --- | --- | --- | --- | --- | --- | --- | --- | --- | --- | --- | --- | --- | --- | --- | --- | --- | --- |
| COc1cc2c(cc1OC)CCN=C2 | > 100 µM (inactive) | > 100 | > 100 µM (inactive) | > 100 µM (inactive) | > 100 µM (inactive) | > 100 µM (inactive) | > 100 µM (inactive) | > 100 µM (inactive) | > 100 µM (inactive) | > 100 µM (inactive) | 56.6 µM (inactive) | > 100 µM (inactive) | > 100 µM (inactive) | > 100 µM (inactive) | > 100 µM (inactive) | > 100 µM (inactive) | > 100 µM (inactive) | > 100 µM (inactive) |  |  |
| Cc1cc(=O)n2nc(CSc3nnc(S)s3)sc2n1 | > 100 µM (inactive) | > 100 | > 100 µM (inactive) | > 100 µM (inactive) | > 100 µM (inactive) | > 100 µM (inactive) | > 100 µM (inactive) | > 100 µM (inactive) | > 100 µM (inactive) | > 100 µM (inactive) | > 100 µM (inactive) | > 100 µM (inactive) | > 100 µM (inactive) | > 100 µM (inactive) | > 100 µM (inactive) | > 100 µM (inactive) | > 100 µM (inactive) | > 100 µM (inactive) | > 100 µM (inactive) | > 100 µM (inactive) |
| NC(Cc1ccc(OCc2ccccc2)cc1)C(=O)NC(Cc1ccccc1)C(=O)Oc1c(Cl)c(Cl)c(Cl)c(Cl)c1Cl (stereo not drawn) | 16.7 µM (inactive) | 16.4 | 69.5 µM (inactive) | 16.6 µM (inactive) | 11.9 µM (inactive) | 15.3 µM (inactive) | 14.2 µM (inactive) | 20.9 µM (inactive) | 16.8 µM (inactive) | 17.9 µM (inactive) | 15 µM (inactive) |  | 16.5 µM (inactive) | 13.3 µM (inactive) | 14.7 µM (inactive) | 54.1 µM (inactive) | 16.8 µM (inactive) | 17.9 µM (inactive) | 16.5 µM (inactive) | 53.1 µM (inactive) |
| [O-][n+]1c2c([n+]([O-])c3ccccc31)-c1cccc3cccc-2c13 |  | > 100 | > 100 µM (inactive) |  | 81.3 µM (inactive) |  | 48.1 µM (inactive) |  | 47.3 µM (inactive) | > 100 µM (inactive) | 21.2 µM (inactive) | 34.3 µM (inactive) |  |  |  | > 100 µM (inactive) | > 100 µM (inactive) | > 100 µM (inactive) | > 100 µM (inactive) | > 100 µM (inactive) |
| O=C1C(=Cc2cccc(O)c2)N=C(c2ccccc2)N1n1c(-c2ccccc2)nc2ccccc2c1=O | 24.7 µM (inactive) | 34.7 | 25.2 µM (inactive) |  | 15.5 µM (inactive) | 20.7 µM (inactive) | 37.2 µM (inactive) | 27.7 µM (inactive) | 22.1 µM (inactive) | 68.5 µM (inactive) | 8.28 µM (inactive) | 24 µM (inactive) | 25.2 µM (inactive) |  | 33.3 µM (inactive) | 16.4 µM (inactive) | 42.3 µM (inactive) | 34.9 µM (inactive) | 21.6 µM (inactive) | 37.3 µM (inactive) |

From ChEMBL document CHEMBL1201862, “PubChem BioAssay data set” (2004)
